The values that follow come from PubChem BioAssay (NCI).

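48-hour exposure; five concentrations; linearly interpolated endpoints. TGI is the concentration that stops growth completely.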

What all share (experiment): NCI anticancer screen, dose series, 48 h
Test [1] relates to SN12C renal.
The test system of test [2] is SK-MEL-28 melanoma.
In test [3] the test system is U251 CNS.
In test [4] the test system is SK-MEL-5 melanoma.
The test system of test [5] is CCRF-CEM leukemia.
In test [6] the test system is RPMI-8226 leukemia.
In test [7] the test system is HL-60(TB) leukemia.
For test [8], the system named is MALME-3M melanoma.
The test system of test [9] is SF-268 CNS.
Test [10] has as its system BT-549 breast.

As for `O=c1nc2ccc3sc4ccccc4c(=O)c3n2c(=O)[nH]1`, the TGI in test [1], in [2], in [3], in test [4], in [5] and in test [6] was over 100 µM each time. Moreover, the TGI in test [7], in test [8] and in test [9] was over 100 µM each time.
In the case of `CCOC(=O)Cc1csc(N=Nc2c(O)[nH]c3ccccc23)n1`, the TGI in test [1] is over 100 µM; in test [3], over 100 µM; in [4], 69.9 µM; in test [5], 83.3 µM; in test [6], over 100 µM; in test [7] it was 50.7 µM. In addition, the TGI in test [10] and in test [9] was over 100 µM in each case.
As for `O=c1c2cc(Br)ccc2ncn1COCc1ccccc1`, the TGI in [2], in test [3], in test [4] and in [5] was over 100 µM throughout.
`CC(=Nc1cc(Cl)cc(Cl)c1)c1ccncc1`: the TGI in test [1], in test [2], in test [3], in test [4], in test [5] and in [6] was over 100 µM throughout. In addition, the TGI in test [10], in test [8] and in test [9] was over 100 µM in each case.
`NC(=S)N/N=C1\CCCC1C(O)(C(F)(F)Cl)C(F)(F)Cl` (stereo not given): the TGI in test [1] was over 10 µM; in test [2], over 10 µM; in test [3] it was over 10 µM; in test [4] it was 7.44 µM; in test [5] it was over 10 µM; in test [6], over 10 µM. Also, the TGI in test [10], in test [8] and in test [9] was over 10 µM each time.
Regarding `COc1cc(CNC(=S)CCCCCCCCCCC(C)C)ccc1O`, the TGI in test [1], in [2], in test [3], in test [4], in test [5] and in test [6] was over 100 µM throughout. Moreover, the TGI in test [7] is 70.2 µM; in test [8], over 100 µM; in [9] it was over 100 µM.
With `C=C(CCOC)CCC1CCCCC(=C)[C@H]1O` (stereo not given in full), the TGI in [1], in [2], in test [3], in [4], in [5] and in test [6] was over 100 µM each time. The TGI in test [7] and in test [9] was over 100 µM each time.
`N#Cc1c(N2CCN(c3ccc([N+](=O)[O-])cc3)CC2)[n+](=O)c2ccc(-c3ccc([N+](=O)[O-])cc3)cc2n1[O-]`: the TGI in test [2] was over 100 µM; in [3], over 41 µM; in test [4], 17.5 µM; in test [5], over 100 µM; in test [6], over 75 µM; in test [10], over 100 µM. Further, the TGI in [8] and in test [9] was over 100 µM throughout.
Consider `COc1cc2oc(=O)cc(C)c2c(OC)c1OC(C)=O`, for which the TGI in test [1], in test [2], in [3], in test [4], in test [5] and in test [6] was over 100 µM each time. Moreover, the TGI in test [8] and in [9] was over 100 µM throughout.
Regarding `O=P(O)(O)C=C=C1CCCCC1`, the TGI in test [1], in test [2], in [3], in test [4], in test [7] and in [8] was over 100 µM throughout. In [9], this molecule returned a TGI of over 100 µM.
On to `Nn1c(Sc2nc3ccccc3c(=O)n2N)nc2ccccc2c1=O`, for which the TGI in test [1] came to 18.8 µM; in test [2], 13.1 µM; in test [3] it was 20 µM; in test [4] it was 11.5 µM; in [5], 4.51 µM; in test [6], 11.5 µM. Besides, the results for the TGI in [10], in test [8] and in test [9] were 6.38 µM, 12.8 µM and 22.3 µM, respectively.
On to `O=c1oc2cccnc2n1CCCCN1CCN(c2ccccc2)CC1`, for which the TGI in [2], in test [3], in test [4], in test [5], in [6] and in test [7] was over 100 µM each time. In addition, the TGI in test [8] and in test [9] was over 100 µM each time.
For `Cn1c2ccc(C3=NCCN3)cc2c2cc(C3=NCCN3)ccc21`, the TGI is over 100 µM in test [1]; over 100 µM in test [2]; over 100 µM in [3]; over 100 µM in [4]; 0.0344 µM in test [5]; over 100 µM in test [6]. For the same molecule, the TGI was over 100 µM in test [10], 61 µM in test [8] and over 100 µM in test [9].
With `CC(=O)NC(=O)NC1=NCCC(=O)N1CCc1c[nH]c2ccccc12`, the TGI in test [1], in test [2], in test [3], in [4], in test [5] and in [6] was over 100 µM in each case. In addition, the TGI in [7], in test [8] and in test [9] was over 100 µM throughout.
For `Cc1nc2c(n1-c1ccccc1)C(=O)c1ccccc1C2=O`, the TGI in [1] was over 100 µM; in test [2] it was over 100 µM; in test [3] it was over 100 µM; in [4], over 100 µM; in test [5] it was over 100 µM; in test [7], 45.1 µM. Moreover, the TGI in [8] was 34.2 µM; in test [9] it was over 100 µM.
`Cc1nc2cccc(F)c2c(=O)n1-c1nnc(C(F)(F)F)s1`: the TGI in [1], in test [2], in [3], in test [4], in test [5] and in test [6] was over 10 µM each time. Also, the TGI in [7] and in test [9] was over 10 µM in each case.
